From patent US7625841B2, “Substituted thiene-3-ylsulphonylamino(thio)carbonyltriazolin(ethi)ones” (Bayer CropScience AG, priority 2001, dated 2009)

Columns and labels:
Type in all cases: in vivo
Galium = assay: Pre-emergence test/greenhouse; conditions: greenhouse, application rate 15 gai/ha, rated after three weeks, 0%=no effect, 100%=total destruction
Method: (§1) • Solvent: 5 parts by weight of acetone • Emulsifier: 1 part by weight of alkylaryl polyglycol ether
(§2) To produce a suitable preparation of active compound, 1 part by weight of active compound is mixed with the stated amount of solvent, the stated amount of emulsifier is added and the concetrate is diluted with water to the desired concentration.
(§3) Seeds of the test plants are sown in normal soil. After 24 hours, the soil is sprayed with the preparation of active compound such that the particular amount of active compound desired is applied per unit area. The concentration of active compound in the spray liquor is chosen such that the particular amount of active compound desired is applied in 1000 litres of water per hectare.
(§4) After three weeks, the degree of damage to the plants is rated in % damage in comparison to the development of the untreated control. The figures denote: • 0%=no effect (like untreated control) • 100%=total destruction

wheat = assay: Pre-emergence test/greenhouse; conditions: Triticum aestivum, 504 h, greenhouse, application rate 15 gai/ha, rated after three weeks, 0%=no effect, 100%=total destruction, read-out: degree of damage to the plants, wheat
Method: as §1, §2, §3, §4

Setaria [1] = assay: Pre-emergence test/greenhouse; conditions: greenhouse, application rate 15 gai/ha, rated after three weeks, 0%=no effect, 100%=total destruction
Method: as §1, §2, §3, §4

Avena fatua [2] = assay: Pre-emergence test/greenhouse; conditions: greenhouse, application rate 15 gai/ha, rated after three weeks, 0%=no effect, 100%=total destruction
Method: as §1, §2, §3, §4

soybeans = assay: Pre-emergence test/greenhouse; conditions: greenhouse, application rate 15 gai/ha, rated after three weeks, 0%=no effect, 100%=total destruction
Method: as §1, §2, §3, §4

Alopecurus = assay: Pre-emergence test/greenhouse; conditions: greenhouse, application rate 15 gai/ha, rated after three weeks, 0%=no effect, 100%=total destruction
Method: as §1, §2, §3, §4

Stellaria = assay: Pre-emergence test/greenhouse; conditions: greenhouse, application rate 15 gai/ha, rated after three weeks, 0%=no effect, 100%=total destruction; for pest or weed control at 15 g/ha: Stellaria, 504 h, read-out: degree of damage to the plants, Stellaria
Method: as §1, §2, §3, §4

Polygonum = assay: Pre-emergence test/greenhouse; conditions: greenhouse, application rate 15 gai/ha, rated after three weeks, 0%=no effect, 100%=total destruction
Method: as §1, §2, §3, §4

Xanthium [3] = assay: Pre-emergence test/greenhouse; conditions: Xanthium, 504 h, greenhouse, application rate 15 gai/ha, rated after three weeks, 0%=no effect, 100%=total destruction, read-out: degree of damage to the plants, Xanthium
Method: as §1, §2, §3, §4

maize = assay: Pre-emergence test/greenhouse; conditions: Zea mays, 504 h, greenhouse, application rate 15 gai/ha, rated after three weeks, 0%=no effect, 100%=total destruction, read-out: degree of damage to the plants, maize
Method: as §1, §2, §3, §4

Digitaria [4] = assay: Pre-emergence test/greenhouse; conditions: greenhouse, application rate 15 gai/ha, rated after three weeks, 0%=no effect, 100%=total destruction
Method: as §1, §2, §3, §4

Amaranthus = assay: Pre-emergence test/greenhouse; conditions: greenhouse, application rate 15 gai/ha, rated after three weeks, 0%=no effect, 100%=total destruction
Method: as §1, §2, §3, §4

Lolium [5] = assay: Pre-emergence test/greenhouse; conditions: greenhouse, application rate 15 gai/ha, rated after three weeks, 0%=no effect, 100%=total destruction; for pest or weed control at 15 g/ha: Lolium, 504 h, read-out: degree of damage to the plants, Lolium
Method: as §1, §2, §3, §4

Chenopodium = assay: Pre-emergence test/greenhouse; conditions: greenhouse, application rate 15 gai/ha, rated after three weeks, 0%=no effect, 100%=total destruction
Method: as §1, §2, §3, §4

Matricaria = assay: Pre-emergence test/greenhouse; conditions: greenhouse, application rate 15 gai/ha, rated after three weeks, 0%=no effect, 100%=total destruction; for pest or weed control at 15 g/ha: Matricaria, 504 h, read-out: degree of damage to the plants, Matricaria
Method: as §1, §2, §3, §4

Bromus [6] = assay: Pre-emergence test/greenhouse; conditions: greenhouse, application rate 15 gai/ha, rated after three weeks, 0%=no effect, 100%=total destruction
Method: as §1, §2, §3, §4

Solanum = assay: Pre-emergence test/greenhouse; conditions: greenhouse, application rate 15 gai/ha, rated after three weeks, 0%=no effect, 100%=total destruction
Method: as §1, §2, §3, §4

Viola = assay: Post-emergence test/greenhouse; conditions: greenhouse, application rate 15 gai/ha, rated after three weeks, 0%=no effect, 100%=total destruction
Method: as §1
(§5) To produce a suitable preparation of active compound, 1 part by weight of active compound is mixed with the stated amount of solvent, the stated amount of emulsifier is added and the concentrate is diluted with water to the desired concentration.
(§6) Test plants of a height of 5-15 cm are sprayed with the preparation of active compound such that the particular amounts of active compound desired are applied per unit area. The concentration of the spray liquor is chosen such that the particular amounts of active compound desired are applied in 1000 l of water/ha.
(§7) After three weeks, the degree of damage to the plants is rated in % damage in comparison to the development of the untreated control.
(§8) The figures denote: • 0%=no effect (like untreated control) • 100%=total destruction

Echinochloa = assay: Post-emergence test/greenhouse; conditions: greenhouse, application rate 15 gai/ha, rated after three weeks, 0%=no effect, 100%=total destruction
Method: as §1, §5, §6, §7, §8

Setaria [7] = assay: Post-emergence test/greenhouse; conditions: greenhouse, application rate 15 gai/ha, rated after three weeks, 0%=no effect, 100%=total destruction
Method: as §1, §5, §6, §7, §8

Avena fatua [8] = assay: Post-emergence test/greenhouse; conditions: greenhouse, application rate 15 gai/ha, rated after three weeks, 0%=no effect, 100%=total destruction
Method: as §1, §5, §6, §7, §8

Xanthium [9] = assay: Post-emergence test/greenhouse; conditions: greenhouse, application rate 15 gai/ha, rated after three weeks, 0%=no effect, 100%=total destruction
Method: as §1, §5, §6, §7, §8

Digitaria [10] = assay: Post-emergence test/greenhouse; conditions: greenhouse, application rate 15 gai/ha, rated after three weeks, 0%=no effect, 100%=total destruction
Method: as §1, §5, §6, §7, §8

Lolium [11] = assay: Post-emergence test/greenhouse; conditions: greenhouse, application rate 15 gai/ha, rated after three weeks, 0%=no effect, 100%=total destruction
Method: as §1, §5, §6, §7, §8

Bromus [12] = assay: Post-emergence test/greenhouse; conditions: greenhouse, application rate 15 gai/ha, rated after three weeks, 0%=no effect, 100%=total destruction
Method: as §1, §5, §6, §7, §8

[13] = tested on: crop plants, such as, for example, maize, soyabean and wheat; assay: Pre-emergence test, summary for crop plants
Method: as §1, §2, §3, §4

weeds [14] = assay: Post-emergence test, summary for weeds
Method: as §1, §5, §6, §7, §8

[15] = tested on: crop plants such as, for example, maize, oilseed rape and wheat; assay: Post-emergence test, summary for crop plants
Method: as §1, §5, §6, §7, §8

weeds [16] = assay: Pre-emergence test, summary for weeds
Method: as §1, §2, §3, §4

| SMILES | degree of damage to the plants, Galium (Galium) [%] | plant injury at 15 g/ha (wheat) [%] | degree of damage to the plants, Setaria (Setaria [1]) [%] | degree of damage to the plants, Avena fatua (Avena fatua [2]) [%] | degree of damage to the plants, soybeans (soybeans) [%] | degree of damage to the plants, Alopecurus (Alopecurus) [%] | pest or weed control at 15 g/ha (Stellaria) [%] | degree of damage to the plants, Polygonum (Polygonum) [%] | pest or weed control at 15 g/ha (Xanthium [3]) [%] | plant injury at 15 g/ha (maize) [%] | degree of damage to the plants, Digitaria (Digitaria [4]) [%] | degree of damage to the plants, Amaranthus (Amaranthus) [%] | pest or weed control at 15 g/ha (Lolium [5]) [%] | degree of damage to the plants, Chenopodium (Chenopodium) [%] | pest or weed control at 15 g/ha (Matricaria) [%] | degree of damage to the plants, Bromus (Bromus [6]) [%] | degree of damage to the plants, Solanum (Solanum) [%] | degree of damage to the plants, Viola (Viola) [%] | degree of damage to the plants, Echinochloa (Echinochloa) [%] | degree of damage to the plants, Setaria (Setaria [7]) [%] | also measured |
| --- | --- | --- | --- | --- | --- | --- | --- | --- | --- | --- | --- | --- | --- | --- | --- | --- | --- | --- | --- | --- | --- |
| COC(=O)c1csc(C)c1S(=O)(=O)NC(=O)n1nc(OC(C)C)n(C2CC2)c1=O [(C), methyl 4-[[[(4-cyclopropyl-4,5-dihydro-5-oxo-3-isopropoxy-1H-1,2,4-triazol-1-yl)-carbonyl]amino]sulfonyl]-5-methyl-3-thiophenecarboxylate, reference compound] | 70 | 0 | 50 | 50 | 0 | 0 | 80 | 60 | 0 | 0 | 20 | 80 | 50 | 40 | 80 | 70 | – | – | – | – | – |
| COC(=O)c1csc(C)c1S(=O)(=O)NC(=O)n1nc(C2CC2)n(C2CC2)c1=O [(D), methyl 4-[[[(3,4-dicyclopropyl-4,5-dihydro-5-oxo-1H-1,2,4-triazol-1-yl)carbonyl]-amino]sulfonyl]-5-methyl-3-thiophenecarboxylate, reference compound] | 0 | 0 | 10 | 70 | 0 | 0 | 60 | 10 | 0 | 20 | 20 | 80 | 20 | 0 | 10 | 10 | 80 | – | – | – | – |
| COC(=O)c1csc(C)c1S(=O)(=O)NC(=O)n1nc(C)n(C)c1=O [(E), methyl 4-[[[(4,5-dihydro-3,4-dimethyl-5-oxo-1H-1,2,4-triazol-1-yl)carbonyl]-amino]sulfonyl]-5-methyl-3-thiophenecarboxylate, reference compound] | 0 | 0 | 20 | 0 | 0 | 20 | 40 | 20 | 0 | 0 | 0 | 10 | 0 | 0 | 20 | 20 | 70 | – | – | – | – |
| CCc1nn(C(=O)NS(=O)(=O)c2c(C(=O)OC)csc2C)c(=O)n1C [(F), methyl 4-[[[(4,5-dihydro-3-ethyl-4-methyl-5-oxo-1H-1,2,4-triazol-1-yl)carbonyl]-amino]sulfonyl]-5-methyl-3-thiophenecarboxylate, reference compound] | 10 | 0 | 30 | 60 | 10 | 70 | 70 | 50 | 0 | 0 | 60 | 40 | 40 | 0 | 20 | 70 | 80 | – | – | – | – |
| CCc1nn(C(=O)NS(=O)(=O)c2c(C(=O)OC)csc2C)c(=O)n1C1CC1 [Example 47] | – | – | 95 | 95 | – | – | – | 90 | – | – | – | 100 | – | – | – | – | – | 100 | 95 | 90 | degree of damage to the plants, Avena fatua (Avena fatua [8]): 95%; degree of damage to the plants, Xanthium (Xanthium [9]): 80%; degree of damage to the plants, Digitaria (Digitaria [10]): 90%; degree of damage to the plants, Lolium (Lolium [11]): 100%; degree of damage to the plants, Bromus (Bromus [12]): 80%; tolerance by crop plants [13]: tolerated well by crop plants; activity against weeds compared with the known compounds (A) and (B) (weeds [14]): considerably stronger activity against weeds; compatibility with crop plants compared with the known compounds (A) and (B) [15]: substantially better compatibility with crop plants; degree of damage to the plants, Stellaria (Stellaria): 100%; degree of damage to the plants, Lolium (Lolium [5]): 80%; degree of damage to the plants, Matricaria (Matricaria): 100%; activity against weeds compared with the known compounds (A) to (G) (weeds [16]): considerably stronger activity against weeds |
| CCCc1nn(C(=O)NS(=O)(=O)c2c(C(=O)OC)csc2C)c(=O)n1C1CC1 [Example 48] | – | – | – | 95 | – | – | – | 95 | – | – | – | 100 | – | – | – | – | – | 95 | 95 | 80 | degree of damage to the plants, Avena fatua (Avena fatua [8]): 90%; degree of damage to the plants, Xanthium (Xanthium [9]): 90%; degree of damage to the plants, Digitaria (Digitaria [10]): 90%; degree of damage to the plants, Lolium (Lolium [11]): 100%; tolerance by crop plants [13]: tolerated well by crop plants; activity against weeds compared with the known compounds (A) and (B) (weeds [14]): considerably stronger activity against weeds; compatibility with crop plants compared with the known compounds (A) and (B) [15]: substantially better compatibility with crop plants; degree of damage to the plants, Stellaria (Stellaria): 100%; degree of damage to the plants, Lolium (Lolium [5]): 95%; degree of damage to the plants, Matricaria (Matricaria): 95%; activity against weeds compared with the known compounds (A) to (G) (weeds [16]): considerably stronger activity against weeds |
